In publication PMC6720511, “Synthesis and biological evaluation of novel N-(piperazin-1-yl)alkyl-1H-dibenzo[a,c]carbazole derivatives of dehydroabietic acid as potential MEK inhibitors” (Journal of Enzyme Inhibition and Medicinal Chemistry, 2019):
Read-outs that look alike come from different tables or passages of the source.

Columns and labels:
HepG2 = assay: MTT cytotoxic assay; assay type: cell-based, human; conditions: mean value ± SD
Procedure: (§1) Three human hepatocarcinoma cell lines (SMMC-7721, HepG2 and Hep3B) and normal hepatocyte cell line (QSG-7701) were maintained in Dulbecco Modified Eagle Medium (DMEM) containing 4.0 mM L-Glutamine and 4500 mg/l Glucose supplemented with 10% (v/v) foetalbovine serum (FBS) and 100 unites/mL penicillin/streptomycin at 37 °C in humidified atmosphere of 5% CO2 and 95% air.
(§2) The in vitro cytotoxic activities of the carbazole derivatives of DHA were evaluated against three human hepatocarcinoma cell lines (SMMC-7721, HepG2 and Hep3B) and a normal human hepatocyte cell line (QSG-7701) via the MTT colorimetric method. Briefly, SMMC-7721, HepG2, Hep3B and QSG-7701 cells were harvested at log phase of growth and seeded in 96-well plates (100 µL/well at a density of 2 × 10^5 cells/mL). After 24 h incubation at 37 °C and 5% CO2 to allow cell attachment, cultures were exposed to various concentrations of the isolated compounds for 48 h. Finally, MTT solution (2.5 mg/mL in PBS) was added (40 µL/well). Plates were further incubated for 4 h at 37 °C, and the formazan crystals formed were dissolved by adding 150 µL/well of DMSO. Absorption at 570 nm was measured with an ELISA plate reader. […] Doxorubicin was co-assayed as positive control.

SMMC-7721 = assay: MTT cytotoxic assay; assay type: cell-based, human; conditions: mean value ± SD
Procedure: as §1, §2

Hep3B = assay: MTT cytotoxic assay; assay type: cell-based, human; conditions: 48 h, mean value ± SD
Procedure: as §1, §2

[1] = tested on: three human hepatocarcinoma cell lines (SMMC-7721, HepG2 and Hep3B); assay: MTT cytotoxic assay, statements over the three cancer cell lines; assay type: cell-based; conditions: for cytotoxic activity against three cancer cell lines (in words): SMMC-7721, HepG2 and Hep3B
Procedure: as §1, §2

[2] = tested on: normal hepatocyte cell line (QSG-7701); assay: MTT cytotoxic assay on normal hepatocytes; assay type: cell-based, human; conditions: mean value ± SD
Procedure: as §1, §2

[3] = at least one of SMMC-7721, HepG2, Hep3B, read-out: IC50 against at least one hepatocarcinoma cell line
[4] = Homo sapiens, at least one of SMMC-7721, HepG2, Hep3B, read-out: IC50 against at least one hepatocarcinoma cell line

| Compound | IC50 (HepG2; Homo sapiens, HepG2, 48 h) [µM] | IC50 (SMMC-7721; Homo sapiens, SMMC-7721, 48 h) [µM] | IC50 (Hep3B; Homo sapiens, Hep3B) [µM] | IC50 (HepG2; 48 h) [µM] | IC50 (SMMC-7721; 48 h) [µM] | IC50 (Hep3B) [µM] | also measured |
| --- | --- | --- | --- | --- | --- | --- | --- |
| CCN1CCN(CCn2c3c(c4ccccc42)C2C(C)(C(=O)OC)CCCC2(C)c2ccc(C(C)C)cc2-3)CC1 (stereo not shown) [Compound 6c, 2,3,4,4a,9,13c-Hexahydro-7-isopropyl-1,4a-dimethyl-9–(2-(4-ethylpiperazin-1-yl)ethyl)-1H-dibenzo[a,c]carbazole-1-carboxylic acid methyl ester] | 17.4 ± 1.73 | 14 ± 2.1 | 11 ± 0.65 |  |  |  | cytotoxic activity against three cancer cell lines (in words) [1]: moderate activity; IC50 ([2]; Homo sapiens, QSG7701, 48 h): 41.1 ± 3.69 µM |
| 2,3,4,4a,9,13c-Hexahydro-7-isopropyl-1,4a-dimethyl-9–(2-(4-phenyl piperazin-1-yl)propyl)-1H-dibenzo[a,c]carbazole-1-carboxylic acid methyl ester [Compound 7f] |  |  |  | > 50 | > 50 | > 50 |  |
| COC(=O)C1(C)CCCC2(C)c3ccc(C(C)C)cc3-c3c(c4ccccc4n3CCN3CCN(Cc4ccccc4)CC3)C12 (stereo not shown) [Compound 6h, 2,3,4,4a,9,13c-Hexahydro-7-isopropyl-1,4a-dimethyl-9–(2-(4-benzylpiperazin-1-yl)ethyl)-1H-dibenzo[a,c]carbazole-1-carboxylic acid methyl ester] | > 50 | > 50 | > 50 |  |  |  |  |
| 2,3,4,4a,9,13c-Hexahydro-7-isopropyl-1,4a-dimethyl-9–(3-(4-methyl piperazin-1-yl)butyl)-1H-dibenzo[a,c]carbazole-1-carboxylic acid methyl ester [Compound 8b] |  |  |  | 19.6 ± 2.91 | 34.9 ± 3.35 | 18.3 ± 1.02 | IC50 ([2]; 48 h): > 50 µM |
| COc1cccc2c1C(=O)c1c(O)c3c(c(O)c1C2=O)C[C@@](O)(C(=O)CO)C[C@@H]3O[C@H]1C[C@H](N)[C@H](O)[C@H](C)O1 [Doxorubicin, reference compound] | 2.38 ± 0.29 | 1.13 ± 0.11 | 1.02 ± 0.09 |  |  |  | IC50 ([2]; Homo sapiens, QSG7701, 48 h): 13.8 ± 0.53 µM |
| 2,3,4,4a,9,13c-Hexahydro-7-isopropyl-1,4a-dimethyl-9–(2-(1,4-diazepan-1-yl) propyl)-1H-dibenzo[a,c]carbazole-1-carboxylic acid methyl ester [Compound 7d] |  |  |  | 8.68 ± 1.13 | 10.3 ± 1.02 | 12.8 ± 0.67 | IC50 [1, 3]: < 10 µM; IC50 ([2]; 48 h): 32.8 ± 3.22 µM |
| COC(=O)C1(C)CCCC2(C)c3ccc(C(C)C)cc3-c3c(c4ccccc4n3CCCN3CCN(C)CC3)C12 (stereo not shown) [Compound 7b, 2,3,4,4a,9,13c-Hexahydro-7-isopropyl-1,4a-dimethyl-9–(3-(4-methylpiperazin-1-yl)propyl)-1H-dibenzo[a,c]carbazole-1-carboxylic acid methyl ester] | 29 ± 1.29 | 6.8 ± 0.72 | 5.98 ± 0.39 |  |  |  | IC50 [1, 4]: < 10 µM; IC50 ([2]; Homo sapiens, QSG7701, 48 h): > 50 µM |
| 2,3,4,4a,9,13c-Hexahydro-7-isopropyl-1,4a-dimethyl-9–(2-(4-benzylpiperazin -1-yl)butyl)-1H-dibenzo[a,c]carbazole-1-carboxylic acid methyl ester [Compound 8h] |  |  |  | > 50 | > 50 | > 50 |  |
| COC(=O)C1(C)CCCC2(C)c3ccc(C(C)C)cc3-c3c(c4ccccc4n3CCN3CCCNCC3)C12 (stereo not shown) [Compound 6d, 2,3,4,4a,9,13c-Hexahydro-7-isopropyl-1,4a-dimethyl-9–(2-(1,4-diazepan-1-yl)ethyl)-1H-dibenzo[a,c]carbazole-1-carboxylic acid methyl ester] | 5.87 ± 0.42 | 7.01 ± 0.74 | 6.31 ± 0.33 |  |  |  | IC50 [1, 4]: < 10 µM; IC50 ([2]; Homo sapiens, QSG7701, 48 h): 22.1 ± 2.75 µM |
| 2,3,4,4a,9,13c-Hexahydro-7-isopropyl-1,4a-dimethyl-9–(2-(4-formylpiperazin-1-yl)propyl)-1H-dibenzo[a,c]carbazole-1-carboxylic acid methyl ester [Compound 7e] |  |  |  | 16.9 ± 1.58 | 23.3 ± 2.35 | 20 ± 1.22 | cytotoxic activity against three cancer cell lines (in words) [1]: moderate inhibitions; IC50 ([2]; 48 h): > 50 µM |
| 2,3,4,4a,9,13c-Hexahydro-7-isopropyl-1,4a-dimethyl-9–(2-(4-ethylpiperazin -1-yl)propyl)-1H-dibenzo[a,c]carbazole-1-carboxylic acid methyl ester [Compound 7c] |  |  |  | > 50 | > 50 | 40.7 ± 2.62 | cytotoxic activity against three cancer cell lines (in words) [1]: weak or no inhibitions |
| COC(=O)C1(C)CCCC2(C)c3ccc(C(C)C)cc3-c3c(c4ccccc4n3CCN3CCN(C)CC3)C12 (stereo not shown) [Compound 6b, 2,3,4,4a,9,13c-Hexahydro-7-isopropyl-1,4a-dimethyl-9–(2-(4-methylpiperazin-1-yl)ethyl)-1H-dibenzo[a,c]carbazole-1-carboxylic acid methyl ester] | 11.7 ± 0.58 | 13.2 ± 0.76 | 6.78 ± 0.42 |  |  |  | IC50 [1, 4]: < 10 µM; IC50 ([2]; Homo sapiens, QSG7701, 48 h): 27.5 ± 1.87 µM |
| 2,3,4,4a,9,13c-Hexahydro-7-isopropyl-1,4a-dimethyl-9–(2-(4-phenyl piperazin-1-yl)butyl)-1H-dibenzo[a,c]carbazole-1-carboxylic acid methyl ester [Compound 8f] |  |  |  | > 50 | > 50 | > 50 |  |
| 2,3,4,4a,9,13c-Hexahydro-7-isopropyl-1,4a-dimethyl-9–(2-(4-formylpiperazin-1-yl)butyl)-1H-dibenzo[a,c]carbazole-1-carboxylic acid methyl ester [Compound 8e] |  |  |  | 41.2 ± 3.56 | 32.1 ± 2.78 | 38 ± 1.75 | cytotoxic activity against three cancer cell lines (in words) [1]: moderate inhibitions; IC50 ([2]; 48 h): > 50 µM |
| 2,3,4,4a,9,13c-Hexahydro-7-isopropyl-1,4a-dimethyl-9–(2-(piperazin-1-yl) propyl)-1H-dibenzo[a,c]carbazole-1-carboxylic acid methyl ester [Compound 7a] |  |  |  | 3.1 ± 0.45 | 5.1 ± 0.18 | 1.37 ± 0.2 | IC50 [1, 3]: < 10 µM; IC50 ([1]; over SMMC-7721, HepG2 and Hep3B, read-out: IC50 against the three cancer cell lines): 1.37 to 5.1 µM; IC50 ([2]; 48 h): 17.2 ± 1.89 µM |
| 2,3,4,4a,9,13c-Hexahydro-7-isopropyl-1,4a-dimethyl-9–(2-(1,4-diazepan-1-yl) butyl)-1H-dibenzo[a,c]carbazole-1-carboxylic acid methyl ester [Compound 8d] |  |  |  | 11.5 ± 1.23 | 12.8 ± 0.84 | 14.4 ± 0.77 | IC50 ([2]; 48 h): 43.6 ± 4.03 µM |
| 2,3,4,4a,9,13c-Hexahydro-7-isopropyl-1,4a-dimethyl-9–(2-(4-(pyridine-2-yl) piperazin-1-yl)propyl)-1H-dibenzo[a,c]carbazole-1-carboxylic acid methyl ester [Compound 7g] |  |  |  | > 50 | > 50 | > 50 |  |
| COC(=O)C1(C)CCCC2(C)c3ccc(C(C)C)cc3-c3c(c4ccccc4n3CCN3CCN(c4ccccc4)CC3)C12 (stereo not shown) [Compound 6f, 2,3,4,4a,9,13c-Hexahydro-7-isopropyl-1,4a-dimethyl-9–(2-(4-phenylpiperazin-1-yl)ethyl)-1H-dibenzo[a,c]carbazole-1-carboxylic acid methyl ester] | > 50 | > 50 | > 50 |  |  |  |  |
| COC(=O)C1(C)CCCC2(C)c3ccc(C(C)C)cc3-c3c(c4ccccc4n3CCN3CCN(c4ccccn4)CC3)C12 (stereo not shown) [Compound 6g, 2,3,4,4a,9,13c-Hexahydro-7-isopropyl-1,4a-dimethyl-9–(2-(4-(pyridine-2-yl)piperazin-1-yl)ethyl)-1H-dibenzo[a,c]carbazole-1-carboxylic acid methyl ester] | > 50 | > 50 | > 50 |  |  |  |  |
| 2,3,4,4a,9,13c-Hexahydro-7-isopropyl-1,4a-dimethyl-9–(2-(4-benzylpiperazin-1-yl)propyl)-1H-dibenzo[a,c]carbazole-1-carboxylic acid methyl ester [Compound 7h] |  |  |  | > 50 | > 50 | > 50 |  |
| 2,3,4,4a,9,13c-Hexahydro-7-isopropyl-1,4a-dimethyl-9–(2-(4-(pyridine-2-yl) piperazin-1-yl)butyl)-1H-dibenzo[a,c]carbazole-1-carboxylic acid methyl ester [Compound 8g] |  |  |  | > 50 | > 50 | > 50 |  |
| 2,3,4,4a,9,13c-Hexahydro-7-isopropyl-1,4a-dimethyl-9–(2-(4-ethylpiperazin -1-yl)butyl)-1H-dibenzo[a,c]carbazole-1-carboxylic acid methyl ester [Compound 8c] |  |  |  | > 50 | > 50 | > 50 | cytotoxic activity against three cancer cell lines (in words) [1]: weak or no inhibitions |
